Results as given in BindingDB's records for doi:10.7270/Q2S46QC1 (Nmmlsc, 2009).

Molecular target: Apoptosis regulator Bcl-2 (Homo sapiens, UniProt P10415)
Test: inhibitors of Bim-Bcl-2 binding, confirmation, biochemical, dose response, multiplexed HTS hits (AID 2075)
[1] = inactive by the depositor's call

Sequence of Apoptosis regulator Bcl-2 (P10415 whole entry): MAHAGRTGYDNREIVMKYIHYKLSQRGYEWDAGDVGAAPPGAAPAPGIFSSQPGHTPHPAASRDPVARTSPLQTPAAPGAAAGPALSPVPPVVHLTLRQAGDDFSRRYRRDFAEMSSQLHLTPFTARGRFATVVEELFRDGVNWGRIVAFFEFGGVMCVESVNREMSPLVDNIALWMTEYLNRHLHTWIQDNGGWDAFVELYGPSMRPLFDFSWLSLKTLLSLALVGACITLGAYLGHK

COc1ccc(CCNC(=O)c2ccc3nc(-c4ccco4)c(-c4ccco4)nc3c2)cc1OC [N-[2-(3,4-dimethoxyphenyl)ethyl]-2,3-di-2-furylquinoxaline-6-carboxamide]
EC50 [1]: 25.8 µM

Cc1ccc(C=NNC(=O)CSc2nnc(-c3ccc(Cl)cc3)n2-c2ccccc2)o1 [SMR000218122]
EC50: 12.3 µM

Cc1cc2nn(-c3cccc4ccccc34)nc2cc1N [SMR000076237]
EC50: 1.9 µM

O=[N+]([O-])c1c(NCCCO)cc(Sc2nc3ccccc3s2)c2nonc12 [MLS000520994]
EC50: 1.91 µM

COc1ccccc1NC1=C(NC(C)=O)C(=O)c2ccccc2C1=O [N-[3-(2-methoxyanilino)-1,4-dioxonaphthalen-2-yl]acetamide]
EC50 [1]: 12.1 µM

CN(CCO)c1cc(Sc2nc3ccccc3s2)c2nonc2c1[N+](=O)[O-] [MLS000520995]
EC50: 6.35 µM

O=C(NCc1ccccc1)c1ccc2nc(-c3ccco3)c(-c3ccco3)nc2c1 [2,3-bis(furan-2-yl)-N-(phenylmethyl)quinoxaline-6-carboxamide]
EC50 [1]: 20.6 µM

Cc1ccc(-c2nc3c(c(=O)[nH]c(=O)n3Cc3ccccc3)n2C)o1 [7-methyl-8-(5-methyl-2-furanyl)-3-(phenylmethyl)purine-2,6-dione]
EC50 [1]: 48.2 µM

CCN(CC)C(=O)COC(=O)c1cc(-c2ccco2)nc2ccccc12 [SMR000377201]
EC50 [1]: 29.5 µM

Clc1nc(NCc2cccnc2)nc(N2CCOCC2)n1 [MLS000121154]
EC50 [1]: 18.9 µM

CC(=O)OCCCNc1cc(Sc2nc3ccccc3s2)c2nonc2c1[N+](=O)[O-] [MLS000521052]
EC50: 0.84 µM

O=C1NC(=O)C2(Cc3c(nc4ccccn4c3=O)N3CCCCCC32)C(=O)N1Cc1ccccc1 (configuration not stated) [MLS000083668]
EC50: 2.25 µM
